Our source for the T/C values is PubChem BioAssay AID206 (DTP/NCI, 2004).

“And” between values parts separate entries of the source, which are not always exact repeats. Equal values may be shown once. Records with an inconclusive call do not appear.

The subject of the experiment is nude mice, HT29 intrarenal xenograft, tumor weight T/C. In words: NCI In Vivo Anticancer Drug Screen. Data for tumor model HT29;CX-1 Human Adenocarcinoma (MER+) (intrarenal inoculation) in NU/NU Swiss (nude) mice. The note with it: endpoint: mean tumor weight change, higher = larger tumour. How it is done:
The antitumor activity of compounds was measured in mice bearing transplantable tumors. Survival or tumor size were measured and the results are expressed as the measurement made in the treated group (T) divided by the measurement made in the vehicle treated control group (C). The tumor model used in this assay is HT29;CX-1 Human Adenocarcinoma (MER+) (intrarenal inoculation) in NU/NU Swiss (nude) mice

[1] abbreviates: dose: 150.0 mg/kg/injection, schedule: Q04DX004 (sc), vehicle: saline with Tween-80.
[2] abbreviates: dose: 300.0 mg/kg/injection, schedule: Q04DX004 (sc), vehicle: Klucel (hydroxypropylcellulose) (HPC).
[3] abbreviates: dose: 600.0 mg/kg/injection, schedule: Q04DX004 (sc), vehicle: Klucel (hydroxypropylcellulose) (HPC).
Where [4] appears, read: dose: 1200.0 mg/kg/injection, schedule: Q04DX004 (sc), vehicle: Klucel (hydroxypropylcellulose) (HPC).

Turning to `CC1(C)CC23C4COC(=O)C2CCC1C3CC4=O` (stereo unspecified), the T/C reads like this: (dose: 25.0 mg/kg/injection, schedule: Q04DX004 (sc), vehicle: DMSO) 56 % of control; (dose: 50.0 mg/kg/injection, schedule: Q04DX004 (sc), vehicle: DMSO) 106 % of control; (dose: 100.0 mg/kg/injection, schedule: Q04DX004 (sc), vehicle: DMSO) 103 % of control; (dose: 300.0 mg/kg/injection, schedule: Q04DX004 (sc), vehicle: DMSO) 56 % of control; (dose: 600.0 mg/kg/injection, schedule: Q04DX004 (sc), vehicle: DMSO) 64 % of control; (dose: 1200.0 mg/kg/injection, schedule: Q04DX004 (sc), vehicle: DMSO) 88 % of control. The T/C (dose: 2400.0 mg/kg/injection, schedule: Q04DX004 (sc), vehicle: DMSO) is 114 % of control.
Take `CC1CC(C)CC(C)C(O)/C(C#N)=C/C=C/CC(C2CCCC2C(=O)O)OC(=O)CC(O)C(C)C1` (stereo unspecified): the T/C reads like this: (dose: 1.5 mg/kg/injection, schedule: Q04DX004 (sc), vehicle: Klucel (hydroxypropylcellulose) (HPC)) 87 % of control; (dose: 3.0 mg/kg/injection, schedule: Q04DX004 (sc), vehicle: Klucel (hydroxypropylcellulose) (HPC)) 76 % of control; (dose: 6.0 mg/kg/injection, schedule: Q04DX004 (sc), vehicle: Klucel (hydroxypropylcellulose) (HPC)) 40 % of control; (dose: 12.0 mg/kg/injection, schedule: Q04DX004 (sc), vehicle: Klucel (hydroxypropylcellulose) (HPC)) 69 % of control.
Consider `CCNC(=O)OCc1c(COC(=O)NCC)c(-c2ccc(Cl)c(Cl)c2)n2c1CCC2`, for which the T/C (dose: 75.0 mg/kg/injection, schedule: Q04DX004 (sc), vehicle: saline with Tween-80) is 5 % of control and 19 % of control; the T/C under setting [1] was 66 % of control.
For `Nc1nncs1`, the T/C runs as follows: (dose: 3.13 mg/kg/injection, schedule: Q01DX010 (sc), vehicle: saline) 97 % of control; (dose: 12.5 mg/kg/injection, schedule: Q01DX010 (sc), vehicle: saline) 84 % of control.
In the case of `CC(=O)c1c(O)c(C)c(O)c2c1OC1=CC(=O)C(C(C)=O)C(=O)C12C` (stereo unspecified), the T/C reads like this: (dose: 300.0 mg/kg/injection, schedule: Q04DX004 (sc), vehicle: sodium bicarbonate) 104 % of control; (dose: 600.0 mg/kg/injection, schedule: Q04DX004 (sc), vehicle: sodium bicarbonate) 91 % of control; (dose: 800.0 mg/kg/injection, schedule: Q01DX010 (sc), vehicle: sodium bicarbonate) 3 % of control and 9 % of control.
Regarding `Cc1c(N)nc([C@H](CC(N)=O)NC[C@H](N)C(N)=O)nc1C(=O)N[C@H](C(=O)N[C@H](C)[C@@H](O)CC(=O)N[C@H](C(=O)NC(O[C@@H]1O[C@@H](C)[C@@H](N)[C@@H](O)[C@H]1O)C(O)c1nc(-c2nc(C(=O)NCCCCN)cs2)cs1)[C@@H](C)O)[C@@H](O[C@@H]1O[C@@H](CO)[C@@H](O)[C@H](O)[C@@H]1O[C@H]1O[C@H](CO)[C@@H](O)[C@H](OC(N)=O)[C@@H]1O)c1c[nH]cn1` (stereo partly specified), the T/C reads like this: (dose: 4.0 mg/kg/injection, schedule: Q04DX004 (sc), vehicle: saline) 104 % of control; (dose: 8.0 mg/kg/injection, schedule: Q04DX004 (sc), vehicle: saline) 68 % of control; (dose: 16.0 mg/kg/injection, schedule: Q04DX004 (sc), vehicle: saline) 73 % of control; (dose: 32.0 mg/kg/injection, schedule: Q04DX004 (sc), vehicle: saline) 28 % of control.
As for `Cc1cc(N2C(=O)CCSC2=S)ccc1Cl`, the T/C (dose: 75.0 mg/kg/injection, schedule: Q04DX004 (sc), vehicle: Klucel (hydroxypropylcellulose) (HPC)) was 37 % of control; the T/C (dose: 150.0 mg/kg/injection, schedule: Q04DX004 (sc), vehicle: Klucel (hydroxypropylcellulose) (HPC)) is 55 % of control; the T/C under setting [2] was 30 % of control.
Regarding `CCCCN(CCCC)C(Cl)=Nc1ccccc1`, the T/C runs as follows: (dose: 100.0 mg/kg/injection, schedule: Q04DX004 (sc), vehicle: other) 103 % of control; (dose: 200.0 mg/kg/injection, schedule: Q04DX004 (sc), vehicle: other) 100 % of control; (dose: 400.0 mg/kg/injection, schedule: Q04DX004 (sc), vehicle: other) 96 % of control; (dose: 800.0 mg/kg/injection, schedule: Q04DX004 (sc), vehicle: other) 91 % of control.
`CN=C(N)N/N=C(\C)c1ccc2c(c1)Cc1ccccc1-2`: the T/C runs as follows: under setting [1], 116 % of control; (dose: 300.0 mg/kg/injection, schedule: Q04DX004 (sc), vehicle: saline with Tween-80) 91 % of control; (dose: 600.0 mg/kg/injection, schedule: Q04DX004 (sc), vehicle: saline with Tween-80) 46 % of control; (dose: 1200.0 mg/kg/injection, schedule: Q04DX004 (sc), vehicle: saline with Tween-80) 81 % of control.
In the case of `COc1c(O)c2c(c3cc(C(=O)N4CCc5c4c(O)c(OC)c4[nH]c(C(=O)N6CC7CC78C6=CC(=O)c6[nH]cc(C)c68)cc54)[nH]c13)CCN2C(N)=O` (stereo unspecified), the T/C runs as follows: (dose: 6.25 micrograms/kg/injection, schedule: Q01DX010 (sc), vehicle: DMSO) 96 % of control; (dose: 12.5 micrograms/kg/injection, schedule: Q01DX010 (sc), vehicle: DMSO) 108 % of control; (dose: 25.0 micrograms/kg/injection, schedule: Q01DX010 (sc), vehicle: DMSO) 65 % of control; (dose: 50.0 micrograms/kg/injection, schedule: Q01DX010 (sc), vehicle: DMSO) 89 % of control.
Take `C[C@]12CCC(=O)C=C1CC[C@@H]1[C@@H]2C(=O)C[C@@]2(C)[C@H]1CC[C@]2(O)C(=O)CO`: the T/C is, setting by setting: under setting [2], 55 % of control; under setting [3], 42 % of control; under setting [4], 42 % of control.
For the compound `C[C@]12CC[C@@H]3c4ccc(O)cc4CC[C@H]3[C@@H]1CC[C@@H]2O`, the T/C was 54 % of control under setting [2] and 75 % of control under setting [3].
With `ClC1=C(Cl)C(Cl)=C(Cl)C1=Cc1ccccc1`, the T/C (dose: 50.0 mg/kg/injection, schedule: Q04DX004 (sc), vehicle: saline with Tween-80) was 104 % of control.
On to `Cc1ccccc1CN1C2=NCCN2C(=O)C2=C1CCN(S(=O)(=O)c1ccc(Cl)c(S(N)(=O)=O)c1)C2`, for which the T/C reads like this: (dose: 150.0 mg/kg/injection, schedule: Q04DX004 (sc), vehicle: saline) 86 % of control; (dose: 300.0 mg/kg/injection, schedule: Q04DX004 (sc), vehicle: saline) 168 % of control; (dose: 600.0 mg/kg/injection, schedule: Q04DX004 (sc), vehicle: saline) 115 % of control; (dose: 1200.0 mg/kg/injection, schedule: Q04DX004 (sc), vehicle: saline) 75 % of control.
Consider `CN(Cc1cnc2nc(N)nc(N)c2n1)c1c(Cl)cc(C(=O)NC(CCC(=O)O)C(=O)O)cc1Cl` (stereo unspecified), for which the T/C was 166 % of control (dose: 12.5 mg/kg/injection, schedule: Q01DX010 (sc), vehicle: Klucel (hydroxypropylcellulose) (HPC)) and 86 % of control (dose: 25.0 mg/kg/injection, schedule: Q01DX010 (sc), vehicle: Klucel (hydroxypropylcellulose) (HPC)).
Turning to `O=C1[C@H]2CCC[C@H]2[C@H]2CCC[C@@H]12`, the T/C runs as follows: (dose: 100.0 mg/kg/injection, schedule: Q04DX004 (sc), vehicle: saline with Tween-80) 67 % of control; (dose: 200.0 mg/kg/injection, schedule: Q04DX004 (sc), vehicle: saline with Tween-80) 44 % of control; (dose: 400.0 mg/kg/injection, schedule: Q04DX004 (sc), vehicle: saline with Tween-80) 83 % of control; (dose: 800.0 mg/kg/injection, schedule: Q04DX004 (sc), vehicle: saline with Tween-80) 82 % of control.
For `COC(=O)CC(N)C(=O)O` (stereo unspecified), the T/C reads like this: (dose: 225.0 mg/kg/injection, schedule: Q04DX004 (sc), vehicle: saline with Tween-80) 103 % of control; (dose: 450.0 mg/kg/injection, schedule: Q04DX004 (sc), vehicle: saline with Tween-80) 81 % of control; (dose: 900.0 mg/kg/injection, schedule: Q04DX004 (sc), vehicle: saline with Tween-80) 69 % of control; (dose: 1800.0 mg/kg/injection, schedule: Q04DX004 (sc), vehicle: saline with Tween-80) 35 % of control.
Regarding `COc1cccc2c1C(=O)c1c(O)c3c(c(O)c1C2=O)C[C@@](O)(C(=O)CO)C[C@@H]3OC1CC(OC(C)=O)C(OC(C)=O)C(C)O1` (stereo partly specified), where the note is “dose: 25.0 mg/kg/injection, schedule: Q01DX010 (sc), vehicle: distilled water + Tween-80”, the T/C was 35 % of control.
Regarding `O=c1[nH]c(=O)n(C2CC(O)C(CO)O2)cc1Br` (stereo unspecified), the T/C is 157 % of control under setting [3]; 91 % of control under setting [4]; 59 % of control (dose: 2400.0 mg/kg/injection, schedule: Q04DX004 (sc), vehicle: Klucel (hydroxypropylcellulose) (HPC)).
